Reference: patent publication US9834542B2, “LXR modulators” (BRISTOL-MYERS SQUIBB COMPANY, priority 2013, dated 2017)

Molecular target: T1, LXRβ (Homo sapiens, UniProt P55055)
T1 construct: Co-transfection expression plasmids, comprising full-length LXRα (pCMX-h LXRα[…] or LXRβ (pCMX-hLXRβ)); expressed in transfected cells; host or cells: CV-1 African Green Monkey Kidney Cells
T1 sequence (P55055 1-460): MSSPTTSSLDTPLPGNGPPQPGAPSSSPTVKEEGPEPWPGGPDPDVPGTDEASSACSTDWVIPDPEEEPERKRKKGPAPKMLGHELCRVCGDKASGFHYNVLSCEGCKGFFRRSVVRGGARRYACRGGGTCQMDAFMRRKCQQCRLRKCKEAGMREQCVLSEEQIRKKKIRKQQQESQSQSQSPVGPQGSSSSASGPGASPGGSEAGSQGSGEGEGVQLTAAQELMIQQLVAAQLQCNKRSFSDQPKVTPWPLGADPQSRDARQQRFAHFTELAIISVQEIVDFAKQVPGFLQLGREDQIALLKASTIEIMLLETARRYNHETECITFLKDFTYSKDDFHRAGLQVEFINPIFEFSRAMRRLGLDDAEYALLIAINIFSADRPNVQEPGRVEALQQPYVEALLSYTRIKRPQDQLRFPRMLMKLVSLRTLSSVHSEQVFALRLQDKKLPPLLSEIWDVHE
T1 sequence (P19793 1-462 partner): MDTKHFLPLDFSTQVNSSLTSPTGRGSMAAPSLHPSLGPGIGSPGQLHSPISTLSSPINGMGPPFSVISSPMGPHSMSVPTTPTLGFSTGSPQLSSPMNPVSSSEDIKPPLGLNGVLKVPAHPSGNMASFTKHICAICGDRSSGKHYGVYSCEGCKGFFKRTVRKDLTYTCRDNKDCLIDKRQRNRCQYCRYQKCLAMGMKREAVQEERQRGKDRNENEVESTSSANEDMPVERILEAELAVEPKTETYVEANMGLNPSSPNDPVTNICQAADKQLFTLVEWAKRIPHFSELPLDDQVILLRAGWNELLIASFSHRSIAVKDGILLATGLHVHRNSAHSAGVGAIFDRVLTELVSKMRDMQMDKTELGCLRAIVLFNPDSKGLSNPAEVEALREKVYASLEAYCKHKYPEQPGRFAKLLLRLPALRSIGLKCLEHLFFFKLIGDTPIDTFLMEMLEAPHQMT
Assay: Co-transfection assay (LXRE luciferase reporter), LXRβ
Format: cell-based
Settings: for EC50: CV-1 cells transfected with pCMX-hLXRβ and LXREx1-Tk-Luciferase, 20 hours incubation; for Emax: LXRβ co-transfection, relative to high control 1-(2,4-difluorobenzyl)-2-oxo-6-(4-phenoxyphenyl)-4-(trifluoromethyl)-1,2-dihydropyridine-3-carbonitrile, read-out: % Efficacy
In short: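 Cell-based LXRβ agonism measured as LXRE-luciferase induction in transiently transfected CV-1 cells after 20 h treatment. Potency is the curve-fit EC50; efficacy is expressed as percent of a full-agonist control's maximal response.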

EC50 [nM]	Emax [%]	SMILES
4680	42	COc1ncc(-c2oc(C)nc2-c2cc(-c3cccc(S(C)(=O)=O)c3)ccc2-n2cc(Cl)nc2C)cc1F [Example 464, 4-(4-(4-chloro-2-methyl-1H-imidazol-1-yl)-3′-(methylsulfonyl)biphenyl-3-yl)-5-(5-fluoro-6-methoxypyridin-3-yl)-2-methyloxazole]
1620	38	Cc1nc(-c2cc(-c3cc(F)c(CO)c(S(C)(=O)=O)c3)ccc2-n2cc(C(F)(F)F)nc2C)c(-c2ccc(N3CCCC3=O)cc2)o1 [Example 501]
782	73	Cc1nc(C(F)(F)F)cn1-c1cc(F)c(-c2cccc(S(C)(=O)=O)c2)cc1-n1nncc1-c1ccc(Cl)cc1Cl [Example 101, 5-(2,4-dichlorophenyl)-1-{6-fluoro-3′-(methylsulfonyl)-4-[2-methyl-4-(trifluoromethyl)-1H-imidazol-1-yl]biphenyl-3-yl}-1H-1,2,3-triazole]
1850	43	Cc1nc(C(F)(F)F)cn1-c1ccc(-c2cccc(S(C)(=O)=O)c2)cc1-n1nncc1C(C)(C)c1ccc(Cl)cc1 [Example 222, 5-(2-(4-chlorophenyl)propan-2-yl)-1-(4-(2-methyl-4-(trifluoromethyl)-1H-imidazol-1-yl)-3′-(methylsulfonyl)-[1,1′-biphenyl]-3-yl)-1H-1,2,3-triazole]
25	81	Cc1cc(-c2cc(-c3ccc(CO)c(S(C)(=O)=O)c3)ccc2-n2cc(C(F)(F)F)nc2C)n(-c2ccc(OC(F)F)cc2)n1 [Example 302, (3′-(1-(4-(difluoromethoxy)phenyl)-3-methyl-1H-pyrazol-5-yl)-4′-(2-methyl-4-(trifluoromethyl)-1H-imidazol-1-yl)-3-(methylsulfonyl)-[1,1′-biphenyl]-4-yl)methanol]
1650	78	COc1ccc(-c2cnnn2-c2cc(-c3cccc(S(C)(=O)=O)c3)ccc2-n2cc(C(F)F)nc2C)cc1 [Example 166, 1-{4-[4-(difluoromethyl)-2-methyl-1H-imidazol-1-yl]-3′-(methylsulfonyl)biphenyl-3-yl}-5-[4-(methyloxy)phenyl]-1H-1,2,3-triazole]
638	89	Cc1nc(C(C)(F)F)cn1-c1ccc(-c2ccc(CO)c(S(C)(=O)=O)c2)cc1-n1nncc1-c1ccc(OC(F)(F)F)cc1 [Example 178, {4′-[4-(1,1-difluoroethyl)-2-methyl-1H-imidazol-1-yl]-3-(methylsulfonyl)-3′-(5-{4-[(trifluoromethyl)oxy]phenyl}-1H-1,2,3-triazol-1-yl)biphenyl-4-yl}methanol]
30	74	Cc1nc(C(F)(F)F)cn1-c1ccc(-c2cc(F)c(CO)c(S(C)(=O)=O)c2)cc1-c1oc(C(C)C)nc1-c1ccc(OC(F)(F)F)cc1 [Example 601, {3-fluoro-3′-[2-(1-methylethyl)-4-{4-[(trifluoromethyl)oxy]phenyl}-1,3-oxazol-5-yl]-5-(methylsulfonyl)-4′-[2-methyl-4-(trifluoromethyl)-1H-imidazol-1-yl]biphenyl-4-yl}methanol]
361	40	Cc1nc(C(F)(F)F)cn1-c1ccc(-c2cc(Cl)c(CO)c(S(C)(=O)=O)c2)cc1-n1nncc1-c1ccc(Cl)cc1 [Example 70, {3-chloro-3′-[5-(4-chlorophenyl)-1H-1,2,3-triazol-1-yl]-5-(methylsulfony)-4′-[2-methyl-4-(trifluoromethyl)-1H-imidazol-1-yl]biphenyl-4-yl}methanol]
2310	62	Cc1nc(C(F)(F)F)cn1-c1ccc(-c2cccc(S(C)(=O)=O)c2)cc1-n1nncc1-c1ccc(F)c(OC(F)(F)F)c1 [Example 46, 5-{4-fluoro-3-[(trifluoromethyl)oxy]phenyl}-1-{3′-(methylsulfonyl)-4-[2-methyl-4-(trifluoromethyl)-1H-imidazol-1-yl]biphenyl-3-yl}-1H-1,2,3-triazole]
